This is an account of results in ChEMBL document CHEMBL6078710, “Design, synthesis and biological evaluation of new SIRT3 activators for the treatment of triple-negative breast cancer” (Bioorg Med Chem, 2025).

One experiment relates to BT-549. Briefly: Antiproliferative activity against human BT-549 cells assessed as inhibition of cell proliferation by MTT assay.
The test system of another experiment is MDA-MB-231. Kind of experiment: Antiproliferative activity against human MDA-MB-231 cells assessed as inhibition of cell proliferation by MTT assay.
Experiment [1] addresses T1, NAD-dependent protein deacetylase sirtuin-3, mitochondrial (Homo sapiens, UniProt Q9NTG7).
T1 sequence (Q9NTG7 whole entry): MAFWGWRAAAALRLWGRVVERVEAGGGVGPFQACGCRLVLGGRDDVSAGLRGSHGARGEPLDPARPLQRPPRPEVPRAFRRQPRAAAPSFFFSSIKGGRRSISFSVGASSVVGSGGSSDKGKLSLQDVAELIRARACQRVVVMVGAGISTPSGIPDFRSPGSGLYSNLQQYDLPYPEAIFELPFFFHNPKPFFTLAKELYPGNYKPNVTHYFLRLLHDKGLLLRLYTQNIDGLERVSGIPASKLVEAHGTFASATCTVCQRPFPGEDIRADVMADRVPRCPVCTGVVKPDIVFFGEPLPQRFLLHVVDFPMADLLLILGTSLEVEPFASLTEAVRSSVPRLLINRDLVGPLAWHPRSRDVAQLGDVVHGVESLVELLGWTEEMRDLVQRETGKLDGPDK
Kind of experiment: Activation of SIRT3 (unknown origin).

As for `CCOC(=O)C1=CN(C(=O)c2cc(OC)c(OC)c(OC)c2)C=C(C(=O)OCC)C1c1ccccc1`, the concentration for half-maximal inhibition (IC50) in the experiment with BT-549 came out at 4.79 µM; in the experiment with MDA-MB-231, 5.23 µM.

Regarding `CCOC(=O)C1=CN(C(=O)c2ccc(OC)c(OC)c2)C=C(C(=O)OCC)C1c1ccc(S(C)(=O)=O)cc1`, the figures for the IC50 in the experiment on BT-549 and in the experiment with MDA-MB-231 were 11.9 µM and 15.2 µM, respectively.

Compound `CC(C)C[C@@H]1NC(=O)CCN2C(=O)CC3(CC(C)(C)C(=O)N3S(=O)(=O)c3cccc(c3)C(=O)OCCOC(=O)[C@H](Cc3ccccc3)NC1=O)C2=O` (some centres undefined) displayed a concentration for a half-maximal effect (EC50) in experiment [1] of 29.4 µM.

As to `CCOC(=O)C1=CN(C(=O)c2cc(OC)c(OC)c(OC)c2)C=C(C(=O)OCC)C1c1cnc(Cl)c(Cl)c1`, the IC50 amounted to 2.77 µM in the experiment with BT-549 and 5.78 µM in the experiment with MDA-MB-231.

In the case of `CCOC(=O)C1=CN(C(=O)c2cc(OC)c(OC)c(OC)c2)C=C(C(=O)OCC)C1c1ccc(S(C)(=O)=O)cc1`, the IC50 in the experiment with BT-549 was found to be 8.21 µM; in the experiment with MDA-MB-231, 14.2 µM.
